Experiments:
[1] = tested on: AFB1-ScFV-AP bifunctional fusion protein; assay type: binding
[2] = tested on: DON-ScFV-AP bifunctional fusion protein; assay type: binding

Compound | IC50 [1] | IC50 [2] | cross-reaction (in words) [2]
CC(=O)O[C@@H]1C[C@]2(C)[C@@]3(CO)[C@H](O)C(=O)C(C)=C[C@H]3O[C@H]1[C@@]21CO1 [3-ADON, 3-acetyldeoxynivalenol] | >100.1 ppm | 2.3 ppb | obvious cross-reaction
CC(=O)OC[C@]12[C@H](O)C(=O)C(C)=C[C@H]1O[C@@H]1[C@H](O)C[C@@]2(C)[C@]12CO2 [15-ADON, 15-acetyldeoxynivalenol] | >100.4 ppm | 64 ppb | 
CC1=C[C@H]2O[C@@H]3[C@H](O)C[C@](C)([C@@]2(CO)[C@H](O)C1=O)[C@]31CO1 [DON, Deoxynivalenol] | >10 ppm | 2.4 ppb | 
CC1=C[C@H]2O[C@@H]3[C@H](O[C@@H]4O[C@H](CO)[C@@H](O)[C@H](O)[C@H]4O)C[C@](C)([C@@]2(CO)[C@H](O)C1=O)[C@]31CO1 [DON-3G, deoxynivalenol-3-glucoside] | >50 ppm |  | 
CCCC[C@@H](C)[C@@H](OC(=O)C[C@@H](CC(=O)O)C(=O)O)[C@H](C[C@@H](C)C[C@H](O)CCCC[C@@H](O)C[C@H](O)[C@H](C)N)OC(=O)C[C@@H](CC(=O)O)C(=O)O [FB1, fumonisin B1] | >28.6 ppm |  | 
CCCC[C@@H](C)[C@@H](OC(=O)C[C@@H](CC(=O)O)C(=O)O)[C@H](C[C@@H](C)CCCCCC[C@@H](O)C[C@H](O)[C@H](C)N)OC(=O)C[C@@H](CC(=O)O)C(=O)O [FB2, fumonisin B2] | >28.6 ppm |  | 
CCCC[C@@H](C)[C@@H](OC(=O)C[C@@H](CC(=O)O)C(=O)O)[C@H](C[C@@H](C)C[C@H](O)CCCCCC[C@H](O)[C@H](C)N)OC(=O)C[C@@H](CC(=O)O)C(=O)O [FB3, fumonisin B3] | >28.6 ppm |  | 
CC1=C[C@H]2O[C@@H]3[C@H](O)[C@@H](O)[C@](C)([C@@]2(CO)[C@H](O)C1=O)[C@]31CO1 [NIV, nivalenol] | >100.4 ppm | 610 ppb | 
C[C@@H]1Cc2c(Cl)cc(C(=O)N[C@@H](Cc3ccccc3)C(=O)O)c(O)c2C(=O)O1 [OTA, ochratoxin A] | >1.9 ppm | >1.9 ppm | 
C[C@H]1CCCC(=O)CCC/C=C/c2cc(O)cc(O)c2C(=O)O1 [ZEN, zearalenone] | >20 ppm | >20 ppm | 
T-2 toxin | >100 ppm | >100 ppm | 
aflatoxin B1 [AFB1] | 0.5 ppb | >2 ppm | 
aflatoxin B2 [AFB2] | 1.9 ppb |  | 
aflatoxin G1 [AFG1] | 2.1 ppb |  | 
aflatoxin G2 [AFG2] | 8.1 ppb |  | 

From patent publication US12306178B2 (priority 2022, dated 2025)
